Data on 26 compounds can be found in publication PMC11784839, “Monoaminergic neurotransmitters are bimodal effectors of tau aggregation” (Science Advances, 2025).

The target in the assay is tau (Homo sapiens, UniProt P10636). Put plainly: MCE Phenols Library screening, tau biosensor cell seeding assay (AvZ). The class given is cell-based. Particulars: for Z repl 1 / Z Repl 2: Z score; for Z repl 1 / raw data 1: replicate 1; for Z Repl 2 / raw data 2: replicate 2; for AvZ (average z score of seeding, SDs from the mean level of seeding): 10 μM phenol in cell cultures, AD brain homogenate preincubated 16 hours, two biological replicates, positive = catalyzes seeding, negative = inhibits.

Where [1] appears, read: average Z score of the two replicates, tau biosensor seeding, MCE Phenols Library screen.
[2] abbreviates: average Z score of the two replicates, MCE Phenols Library screen.
Setting [3] is: average Z score of the two replicates, tau seeding.
Where [4] appears, read: average puncta of the two replicates.

Chain of tau (P10636 623-695 limits assumed): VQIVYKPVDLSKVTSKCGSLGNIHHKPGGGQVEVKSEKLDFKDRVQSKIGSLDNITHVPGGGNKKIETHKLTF

`COc1cc(O)c2c(=O)cc(-c3ccc(O)cc3)oc2c1` [Genkwanin]: the “Z repl 1” value was 1.231 and the “Z Repl 2” value is reported as 0.655. Under setting [1], the “av Z” value was 0.943. The same compound had an av puncta (average of raw data 1 and 2) of 30446.8. For the same compound, for the setting “puncta”, the “raw data 1” value stood at 41129.3 and the “raw data 2” value was 19764.4.
Regarding `O=C1O[C@H]2[C@@H]3OC(=O)c4cc(O)c(O)c(O)c4-c4c(cc(O)c(O)c4O)C(=O)OC[C@H]2O[C@@H](OC(=O)c2cc(O)c(O)c(O)c2)[C@@H]3OC(=O)c2cc(O)c(O)c3c2[C@@H]2C1=CC(=O)[C@](O)(O3)C2(O)O` [Geraniin], the “Z repl 1” value was -2.121 and the “Z Repl 2” value is on record as -1.184. Besides, under setting [2], the “av Z” value is listed as -1.653. The av puncta (average of raw data 1 and 2) worked out at 501.022. Further, for the setting “puncta”, the “raw data 1” value came out at 880.948 and the “raw data 2” value was determined as 121.096.
For the compound `CCCCCC/C=C\CCCCCCCCCc1cccc(O)c1C(=O)O` [Ginkgolic acid C17:1], the “AvZ (average z score of seeding, SDs from the mean level of seeding)” value (“AvZ” below) came to 0.292; the “Z repl 1” value came to 0.386; the “Z Repl 2” value is reported as 0.198. For the setting “average of raw data 1 and 2”, this compound showed an av puncta of 22931. Besides, under “puncta”, the “raw data 1” value was 30979.1 and the “raw data 2” value is listed as 14882.8.
In the case of `CC1(C)C=Cc2c(ccc3c2OC[C@@H](c2ccc(O)cc2O)C3)O1` [Glabridin], the “Z repl 1” value stood at 0.624 and the “Z Repl 2” value came to 0.805. The “av Z” value under setting [3] is on record as 0.715. The compound also showed an av puncta (average of raw data 1 and 2) of 27603.9. Where the note is “puncta”, the “raw data 1” value was 33843.5 and the “raw data 2” value is reported as 21364.3.
Take `COc1cc2c(=O)c(-c3ccc(O)cc3)coc2cc1O` [Glycitein]: the “Z repl 1” value worked out at 0.123 and the “Z Repl 2” value is given as -0.524. Also, under setting [2], the “av Z” value was -0.2. The same compound came in with an av puncta under setting [4] of 17498.7. For the same compound, for the setting “raw puncta”, the “raw data 1” value amounted to 27830.8 and the “raw data 2” value is recorded as 7166.64.
On to `COc1c(CC=C(C)C)c(O)cc2oc(=O)c(-c3ccc(O)cc3O)cc12` [Glycycoumarin], for which the “Z repl 1” value came to 0.796 and the “Z Repl 2” value is 0.821. Besides, the “av Z” value under setting [1] turned out to be 0.808. For the same compound, the av puncta (average of raw data 1 and 2) is 28718.5. For the setting “puncta”, the “raw data 1” value was found to be 35905.3 and the “raw data 2” value amounted to 21531.6.
As for `Oc1cc(O)cc(/C=C/c2c(O)cccc2O)c1` [Gnetol], the “Z repl 1” value is listed as -2.02 and the “Z Repl 2” value is -1.135. For the same compound, under setting [2], the “av Z” value is reported as -1.577. This compound also had an av puncta (average of raw data 1 and 2) of 1372.64. For the same compound, under “puncta”, the “raw data 1” value is reported as 2096.46 and the “raw data 2” value is recorded as 648.824.
On to `O=c1c(O)c(-c2ccc(O)c(O)c2)oc2c(O[C@@H]3O[C@H](CO)[C@@H](O)[C@H](O)[C@H]3O)c(O)cc(O)c12` [Gossypin], for which the “Z repl 1” value was -0.561 and the “Z Repl 2” value is reported as -0.884. Also, the “av Z” value under setting [2] is -0.722. The compound also had an av puncta under setting [4] of 11471.3. For the same compound, under “puncta”, the “raw data 1” value is 19618.8 and the “raw data 2” value amounted to 3323.85.
As to `Cc1cc2c(C(C)C)c(O)c(O)c(C=O)c2c(O)c1-c1c(C)cc2c(C(C)C)c(O)c(O)c(C=O)c2c1O` [Gossypol], the “Z repl 1” value is listed as -2.171 and the “Z Repl 2” value is -0.607. Further, the “av Z” value under setting [2] is reported as -1.389. Further, the av puncta (average of raw data 1 and 2) is on record as 3285.13. Further, where the note is “puncta”, the “raw data 1” value is given as 287.373 and the “raw data 2” value turned out to be 6282.89.
Take `COc1cc2c(cc1O)CC[n+]1cc3c4c(ccc3cc1-2)OCO4` [Groenlandicine]: the “Z repl 1” value was found to be 0.553 and the “Z Repl 2” value was -0.208. Further, the “av Z” value under setting [3] came out at 0.172. Further, for the setting “average of raw data 1 and 2”, the av puncta came to 21762.9. Also, under “puncta”, the “raw data 1” value was 32984.4 and the “raw data 2” value is listed as 10541.3.
As for `C[C@@H]1O[C@@H](Oc2c(-c3ccc(O)cc3)oc3cc(O[C@@H]4O[C@@H](C)[C@H](O)[C@@H](O)[C@H]4O[C@@H]4O[C@H](CO)[C@@H](O)[C@H](O)[C@H]4O)cc(O)c3c2=O)[C@H](O)[C@H](O)[C@H]1O` [Grosvenorine], the “Z repl 1” value is given as 0.758 and the “Z Repl 2” value turned out to be 0.703. For the same compound, the “av Z” value under setting [1] was determined as 0.73. The compound also gave an av puncta (average of raw data 1 and 2) of 27858.6. Under “puncta”, the “raw data 1” value was 35445.3 and the “raw data 2” value is on record as 20271.9.
For `COc1ccccc1O` [Guaiacol], the “AvZ” value was -0.653; the “Z repl 1” value is -0.724; the “Z Repl 2” value is recorded as -0.582. Under setting [4], this compound returned an av puncta of 12102.3. Where the note is “puncta”, the “raw data 1” value worked out at 17657.8 and the “raw data 2” value was found to be 6546.75.
For `O=c1c(O[C@@H]2OC[C@H](O)[C@H](O)[C@H]2O)c(-c2ccc(O)c(O)c2)oc2cc(O)cc(O)c12` [Guaijaverin], the “Z repl 1” value is given as -0.067 and the “Z Repl 2” value was -0.383. Also, under setting [2], the “av Z” value is given as -0.225. The compound also had an av puncta under setting [4] of 17108.5. For the same compound, for the setting “raw puncta”, the “raw data 1” value is given as 25544.8 and the “raw data 2” value stood at 8672.24.
As to `Oc1cc2c(cc1O)[C@@H]1c3ccc(O)c(O)c3OC[C@]1(O)C2` [Hematoxylin], the “Z repl 1” value is -1.7 and the “Z Repl 2” value was -0.865. The “av Z” value under setting [2] is on record as -1.283. In addition, where the note is “average of raw data 1 and 2”, the av puncta came to 4731.6. Further, for the setting “puncta”, the “raw data 1” value is 5936.96 and the “raw data 2” value was 3526.25.
For `O=c1c(O)c(-c2ccc(O)cc2)oc2c(O)c(O)cc(O)c12` [Herbacetin], the “AvZ” value was -1.63; the “Z repl 1” value was -2.129; the “Z Repl 2” value is listed as -1.129. Besides, the “av Z” value under setting [2] is given as -1.629. This compound gave an av puncta (average of raw data 1 and 2) of 747.252. In addition, where the note is “puncta”, the “raw data 1” value came to 787.042 and the “raw data 2” value is on record as 707.463.
For the compound `Cl.Oc1ccc(CC2NCCc3cc(O)c(O)cc32)cc1` (stereo not drawn) [Higenamine (hydrochloride)], the “Z repl 1” value was -0.238 and the “Z Repl 2” value is -1.059. The “av Z” value under setting [2] is -0.649. Under setting [4], this compound registered an av puncta of 12469.5. For the same compound, where the note is “puncta”, the “raw data 1” value came to 23487.2 and the “raw data 2” value was 1451.73.
In the case of `O=c1cc(O)cc(/C=C/c2ccc(O)c(O)c2)o1` [Hispidin], the “Z repl 1” value was 0.687 and the “Z Repl 2” value is given as -0.112. For the same compound, the “av Z” value under setting [3] is recorded as 0.287. In addition, the av puncta (average of raw data 1 and 2) came out at 23081.7. Moreover, for the setting “puncta”, the “raw data 1” value was 34594.7 and the “raw data 2” value came to 11568.8.
In the case of `COc1cc(CNC(=O)CCCCCCCC(C)C)ccc1O` [Homodihydrocapsaicin I], the “AvZ” value was -0.169; the “Z repl 1” value is -0.665; the “Z Repl 2” value stood at 0.327. For the same compound, the av puncta (average of raw data 1 and 2) was 17309.6. Besides, where the note is “puncta”, the “raw data 1” value is 18361.4 and the “raw data 2” value amounted to 16257.8.
Take `O=C(O)Cc1cc(O)ccc1O` [Homogentisic acid]: the “AvZ” value is given as -1.185; the “Z repl 1” value is reported as -1.286; the “Z Repl 2” value is listed as -1.085. This compound also came in with an av puncta (average of raw data 1 and 2) of 6046.8. In addition, for the setting “puncta”, the “raw data 1” value came to 10913.7 and the “raw data 2” value is given as 1179.87.
As to `COc1c(O[C@@H]2O[C@H](CO)[C@@H](O)[C@H](O)[C@H]2O)cc2oc(-c3ccc(O)cc3)cc(=O)c2c1O` [Homoplantaginin], the “Z repl 1” value is given as -0.079 and the “Z Repl 2” value is listed as -0.247. Under “average Z score of two replicates, Phenols Library screen”, the “av Z” value is on record as -0.163. For the same compound, the av puncta (average of raw data 1 and 2) amounted to 17765.2. Further, where the note is “puncta”, the “raw data 1” value is given as 25406.2 and the “raw data 2” value is on record as 10124.2.
Turning to `COc1cc(CCO)ccc1O` [Homovanillyl alcohol], the “AvZ” value is given as -0.068; the “Z repl 1” value is on record as -0.272; the “Z Repl 2” value is listed as 0.136. Besides, the av puncta (average of raw data 1 and 2) turned out to be 18647.3. Where the note is “puncta”, the “raw data 1” value was found to be 23079.4 and the “raw data 2” value came to 14215.2.
Take `COc1cc(O)c2c(=O)cc(-c3ccc(O)c(O)c3)oc2c1` [Hydroxygenkwanin]: the “Z repl 1” value is -0.407 and the “Z Repl 2” value is -0.493. Under setting [2], the “av Z” value is -0.45. Besides, the av puncta under setting [4] is reported as 14482.9. Where the note is “raw puncta”, the “raw data 1” value amounted to 21459.9 and the “raw data 2” value stood at 7505.79.
With `O=C(O)C(O)Cc1ccc(O)cc1` (stereo not drawn) [Hydroxyphenyllactic acid], the “AvZ” value is given as 0.039; the “Z repl 1” value was -0.248; the “Z Repl 2” value was 0.325. Under “average of raw data 1 and 2”, this compound displayed an av puncta of 19806.4. Where the note is “puncta”, the “raw data 1” value came out at 23372.2 and the “raw data 2” value stood at 16240.5.
In the case of `O=C(/C=C/c1ccc(O)cc1)C1=C(O)C(O)([C@@H]2O[C@H](CO)[C@@H](O)[C@H](O)[C@H]2O)C(O)=C([C@@H]2O[C@H](CO)[C@@H](O)[C@H](O)[C@H]2O)C1=O` (stereo partly drawn) [Hydroxysafflor yellow A], the “Z repl 1” value is -0.826 and the “Z Repl 2” value is recorded as -0.428. The “av Z” value under setting [2] is given as -0.627. The compound further gave an av puncta under setting [4] of 12310.1. For the same compound, for the setting “puncta”, the “raw data 1” value came out at 16428.1 and the “raw data 2” value was determined as 8192.15.
In the case of `CC(=O)OCCc1ccc(O)c(O)c1` [Hydroxytyrosol acetate], the “Z repl 1” value was -0.003 and the “Z Repl 2” value is given as -1.049. Also, the av puncta under setting [4] was 13936.9. Also, where the note is “puncta”, the “raw data 1” value turned out to be 26308.5 and the “raw data 2” value worked out at 1565.31.
Consider `OCCc1ccc(O)c(O)c1` [Hydroxytyrosol], for which the “AvZ” value was -0.34; the “Z repl 1” value is on record as -0.11; the “Z Repl 2” value is given as -0.571. Moreover, under setting [4], the av puncta worked out at 15851.9. Further, under “raw puncta”, the “raw data 1” value turned out to be 25031.1 and the “raw data 2” value was found to be 6672.58.
